Data set [1] relates to rat model of pMACO. Kind of data set: Garcia JH scoring in rat model of pMACO. It is filed as in vivo, SD rats. The arrangement: 5 min Spontaneous Activity / Body Symmetry / Forelimb Extension Movement / Cage Climbing / Body Tactile Response on Both Sides / Beard Touch Reaction on Both Sides / Total Score: scale not given here. As to conditions: Garcia JH score, Day 21; 3Time regimen: IRL1620 5 µg/Kg, BX225 6.6 µg/Kg. The text has this: Male SD rats, weighing 280-300 g, were used and acclimatized for at least 3 days. Focal cerebral ischemia was induced by middle cerebral artery occlusion with a suture method under isoflurane anesthesia. The animals were placed in a supine position, a midline incision was made, and the right common carotid artery, external carotid artery, and internal carotid artery were exposed. A 4.0 monofilament nylon suture was advanced from the external carotid artery toward the internal carotid artery lumen until resistance was felt (~20 mm), indicating middle cerebral artery occlusion. The nylon filament was allowed to stay in place to create a permanent model of focal cerebral ischemia. The day of modeling was defined as D1, the next day as D2, and so on. Since the experiment was not be completed in a single batch, and in order to prevent accidental errors, all operations in this experiment had to follow the principle of parallel operation, i.e., the experiment on each day needed to include animals from each group. Sequential numbering for surgical modeling was obtained by sorting the animals according to their body weight before the experiment. After the surgery, successfully modeled pMCAO rats were randomly assigned into a model group and various treatment groups. The detailed grouping of the experiment was as follows: (1) 15 rats in the 5 µg/Kg IRL1620 group with 9 administrations over 3 days; (2) 15 rats in the 6.6 µg/Kg BX225 group with 9 administrations over 3 days; (3) 15 rats in the 19.8 µg/Kg BX225 group with 3 administrations over 3 days; (4) 15 rats in the model (normal saline) group; and (5) 6 rats in the sham group (the sham group underwent the same procedure without vascular ligation and suture insertion). The administration was performed via tail vein injection (iv) with an administration volume of 2 mL/kg. The first administration was 2 hours after the surgery. Administration frequencies were single and multiple administrations per day according to the experimental design. Administrations were performed on D1, D3, and D6, respectively, as detailed in Table 22. The model group and the sham group were given the same volume of vehicle normal saline.

The subject of data set [2] is mouse model of dMACO. Kind of data set: Cerebral blood flow perfusion in mouse model of dMACO (laser speckle flowmeter). It is filed as in vivo, C57 BL/6 mice. The text has this: Eight-week-old male C57 BL/6 mice were used and acclimated for at least 3 days. On the day of experiment, the mice were anesthetized with isoflurane, and an incision of approximately 2 cm in length was made in the middle of the […]. The mice were placed under a laser speckle flowmeter to capture a video of blood flow on both sides of the brain as images of pre-ischemic blood flow perfusion. Subsequently, a skull incision (3 mm×1.5 mm) was made at the right rear of the intersection of the sagittal suture and the coronal suture with a skull drill. The distal end of the right middle cerebral artery was located under a microscope, and a No.11 suture was used to ligate the middle artery. Meanwhile, the right common carotid artery was separated and ligated. A video of blood flow on both sides of the brain was captured again as images of post-ischemic blood flow perfusion. The scalp was sutured, and the animals were rewarmed in a rewarming box. Successfully modeled dMACO mice were randomly assigned to single-dose BX-34 groups of 7, 14, and 42 µg/Kg, single-dose IRL1620 groups of 5 and 10 µg/Kg, a three-dose IRL1620 group of 10 µg/Kg, and a normal saline control group. The single-dose groups were administered via tail vein 1 h after modeling, while the three-dose group was administered via tail vein at 1 hour, 3 hours, and 5 hours after modeling. A video of blood flow on both sides of the brain of each animal was captured again at 24 hours, 48 hours, and D7 after administration. During data analysis, the ROI was introduced or the area requiring blood flow calculation was selected. The average blood flow of the selected area was calculated by double-clicking on the blood flow image. Ratios of the average blood flow perfusions on right brain after modeling, and 24 hours, 48 hours and D7 after administration, to the average blood flow on right brain before modeling were used for statistical analysis of each group.

Data set [3] concerns male SD rats. Conditions: one animal per row, observed 48 hours.
For data set [4] the following is noted: background statement; cited from earlier work.

Entries after “also recorded” stand apart in the source; their conditions may differ. Read-outs that look alike come from different tables or passages of the source. Numbered stars: 1 amine (or outer) side, 2 acyl side, 3 side chain; on linkers, the order of the positions; unused ones are H or OH. Peptide text beside a SMILES is read from it. Suc = O=C(CCC(=O)[*:2])[*:1]

Consider `CC[C@H](C)[C@H](NC(=O)[C@H](CC(=O)O)NC(=O)[C@H](CC(C)C)NC(=O)[C@H](Cc1c[nH]cn1)NC(=O)[C@H](C)NC(=O)[C@H](Cc1ccccc1)NC(=O)[C@H](Cc1ccc(O)cc1)NC(=O)[C@@H](NC(=O)[C@H](C)NC(=O)[C@H](CCC(=O)O)NC(=O)[C@H](CCC(=O)O)NC(=O)[C@H](CC(=O)O)NC(=O)CCC(=O)O)C(C)C)C(=O)N[C@H](C(=O)N[C@@H](Cc1c[nH]c2ccccc12)C(=O)O)[C@@H](C)CC` [IRL1620, reference compound] (Suc-DEEAVYFAHLDIIW-OH), for which, in data set [1], the “5 min Spontaneous Activity” value is on record as 1.77±1.48, the “Beard Touch Reaction on Both Sides” value came out at 1.95±0.82, the “Body Symmetry” value was 0.90±0.80 and the “Body Tactile Response on Both Sides” value was determined as 1.79±0.70. Moreover, in data set [1], the “Cage Climbing” value is recorded as 2.03± 0.86, the “Forelimb Extension Movement” value amounted to 1.26±1.05 and the “Total Score” value is 9.70± 5.58. For the same compound, the “cerebral blood flow perfusion amount compared to the normal saline group” value in data set [2] (dMCAO mice, single dose of 5 µg/kg via tail vein) is “no significant differences”. Also, the “cerebral blood flow perfusion amount compared to the normal saline group” value in data set [2] (mouse, in vivo) was “no significant differences”. In addition, the “Observations of Animal Status” value in data set [3] (subcutaneous 60 µg/Kg) is “Developed rapid breathing at 25 minutes after administration, recovered after 15 minutes; also recorded: Developed rapid breathing at 26 minutes after administration, recovered after 16 minutes; also recorded: Developed rapid breathing at 30 minutes after administration, recovered after 17 minutes; also recorded: Developed rapid breathing at 25 minutes after administration, recovered after 16 minutes”. The “Observations of Animal Status” value in data set [3] (subcutaneous 120 µg/Kg) was “Developed rapid breathing at 27 minutes after administration, gradually recovered after 50 minutes; also recorded: Developed rapid breathing at 26 minutes after administration and lasted for 23 minutes; then died; also recorded: Developed rapid breathing at 26 minutes after administration, gradually recovered after 50 minutes; also recorded: Developed rapid breathing at 28 minutes after administration, gradually recovered after 50 minutes”. Also, in data set [4], the half-life result is given as “less than 2 minutes”.

The values are drawn from EP4702986A1, “POLYPEPTIDE AND USE THEREOF” (Biocells (Beijing) Biotech Co., Ltd., priority 2023, dated 2024).
